Source: patent US9220719B2, “Single dose oral formulations and methods for treatment of cats with ectoparasiticidal spinosad” (priority 2012, dated 2015)

Legend:
[1] = Tolerability of flavored spinosad tablet in cats (Example 3); type: in vivo, cat; conditions: beef flavored tablet 51.47 to 76.06 mg/kg single oral dose
Source text: (§1) In total, twenty-two (22) cats can be acclimatized for the study and from these, 17 can be selected based on pre-treatment weight and flea retention counts to be randomized into either a treated or control group. Nine cats can be assigned to the control group and eight cats can be assigned to the treatment group based on flea retention counts from Day −5. Cats in the treated group can be dosed on Day 0 with the intended final formulation, a beef flavored tablet containing spinosad at a dose rate of 50-75 mg/kg spinosad/body weight, while the cats in the control group can be dosed with a vehicle control tablet.
(§2) Seventeen cats were randomized based on pre-treatment flea infestation counts into either a treated or control group. Eight cats were dosed on Day 0 with a beef flavored tablet containing spinosad with an overall dose range of 51.47 to 76.06 mg/kg spinosad body weight. The other nine cats were dosed with a vehicle control tablet.

[2] = Tolerability of oral spinosad in cats (Example 1); type: in vivo, cat; conditions: single oral dose 35-50 mg/kg in gelatin capsule
[3] = test system: adult cat fleas (Ctenocephalides felis); experiment: Dose confirmation: efficacy of beef flavored spinosad tablet against fleas on experimentally infested cats (Example 3); type: in vivo; conditions: beef flavored tablet 50-75 mg/kg single oral dose
Protocol: The treatment effect (insecticidal efficacy) of a beef flavored spinosad tablet when administered orally at a dose of 50-75 mg/kg against fleas (Ctenocephalides felis) on experimentally infested cats can be evaluated at one day post-administration and for the post-treatment prevention effect (residual efficacy) on Days 7, 14, 21 and 28.
as §1
Each cat can be infested with approximately 100 fleas on Days −1, 7, 14, 21 and 28 and then combed and the fleas counted on Days 1, 9, 16, 23 and 30 respectively.
as §2

[4] = test system: adult cat flea (Ctenocephalides felis); experiment: Dose determination: knockdown and residual effectiveness of spinosad (gelatin capsule) against adult fleas on experimentally infested cats (Example 1); type: in vivo; conditions: for Geometric Mean Counts of Adult C. felis / Geometric Mean Percent Reduction of Adult C. felis Compared to Untreated Control Group: fed
Source text: The “knockdown” and “residual” effectiveness of spinosad can be evaluated following oral administration at four different single dosages, compared to a non-treated control group, against the adult cat flea (Ctenocephalides felis) on experimentally infested cats. A minimum effective oral dose in cats can be evaluated based on knockdown efficacy (i.e., on Day 1 following administration) and on residual efficacy (i.e., on Day 30 following administration) against the cat flea (Ctenocephalides felis).
Forty cats can be evaluated in a randomized complete block design with cat gender and pretreatment live flea counts used as blocking factors. Five treatment groups of four female and four male cats per group can be orally dosed on Test Day 0: Group (1) can be administered 0 mg/kg vehicle control (empty gelatin capsule); Group (2) can be administered spinosad in a gelatin capsule at a dose of 35 mg/kg body weight; Group (3) can be administered spinosad in a gelatin capsule at a dose of 40 mg/kg body weight; Group (4) can be administered spinosad in a gelatin capsule at a dose of 45 mg/kg body weight; and Group (5) can be administered spinosad in a gelatin capsule at a dose of 50 mg/kg body weight. All cats can consume canned cat food just prior to dosing to ensure they were in a fed state. Each cat can be infested with approximately 100 newly emerged, unfed adult fleas (C. felis), on Test Days −6, −1, 5, 12, 19, 28 and 35. Individual animal flea counts can be performed approximately 48-hours post-infestation using the laboratory's comb counting method on Test Days −4, 1, 7, 14, 21, 30 and 37. The Day −4 pre-treatment live flea counts can be used to allocate animals to the five treatment groups. The Day 1, 7, 14, 21, 30 and 37 flea counts can be used to evaluate the knockdown (Day 1) and residual flea efficacy in each of the treated groups compared to the vehicle (negative) control group.

[5] = test system: adult cat fleas (Ctenocephalides felis); experiment: Dose confirmation: efficacy of flavored spinosad tablet against fleas on experimentally infested cats (Example 4); type: in vivo; conditions: flavored tablet 50-75 mg/kg single oral dose, fed
Source text: Confirmation of the efficacious dose of spinosad can be evaluated in cats experimentally infested with adult fleas (Ctenocephalides felis).
Twenty-four (24) cats that meet the inclusion/exclusion criteria and had the highest pre-treatment live flea (C. felis) counts can be included in a randomized complete block design with pre-treatment live flea counts used as a blocking factor. Each cat can be infested with approximately 100 unfed adult fleas (C. felis) on Test Day −9. Pre-treatment live flea counts can be conducted using the laboratory's comb counting method on Test Day −7. The Test Day −7 live flea counts can be used to allocate cats to one of two treatment groups. The two treatment groups of 12 cats per group can be orally dosed on Test Day 0. One group (5 male: 7 female) can receive vehicle control (0 mg/kg placebo tablets) and the second group (7 male: 5 female) can receive flavored spinosad tablets at a dose rate of 50-75 mg/kg body weight. Cats can consume canned cat food just prior to dosing and can be offered their daily maintenance diet after dosing. Each cat can be infested with approximately 100 unfed adult fleas (C. felis) on Test Days −1, 5, 12, 19, 28 and 35. Individual animal live flea counts can be performed on Test Days 1, 7, 14, 21, 30 and 37.

[6] = single oral dose 35 mg/kg in gelatin capsule, Day 7 post treatment
[7] = single oral dose 35 mg/kg in gelatin capsule, Day 14 post treatment
[8] = single oral dose 35 mg/kg in gelatin capsule, Day 21 post treatment
[9] = single oral dose 35 mg/kg in gelatin capsule, Day 37 post treatment
[10] = single oral dose 40 mg/kg in gelatin capsule, Day 7 post treatment
[11] = single oral dose 40 mg/kg in gelatin capsule, Day 14 post treatment
[12] = single oral dose 40 mg/kg in gelatin capsule, Day 21 post treatment
[13] = single oral dose 40 mg/kg in gelatin capsule, Day 30 post treatment
[14] = single oral dose 40 mg/kg in gelatin capsule, Day 37 post treatment
[15] = single oral dose 45 mg/kg in gelatin capsule, Day 7 post treatment
[16] = single oral dose 45 mg/kg in gelatin capsule, Day 14 post treatment
[17] = single oral dose 45 mg/kg in gelatin capsule, Day 21 post treatment
[18] = single oral dose 45 mg/kg in gelatin capsule, Day 37 post treatment
[19] = single oral dose 50 mg/kg in gelatin capsule, Day 7 post treatment
[20] = single oral dose 50 mg/kg in gelatin capsule, Day 14 post treatment
[21] = single oral dose 50 mg/kg in gelatin capsule, Day 21 post treatment
[22] = single oral dose 50 mg/kg in gelatin capsule, Day 30 post treatment
[23] = single oral dose 50 mg/kg in gelatin capsule, Day 37 post treatment

spinosad
tolerability [1]: adequately tolerated | tolerability [2]: well tolerated | Geometric Mean Percent Reduction of Adult C. felis Compared to Untreated Control Group ([3]; Day 1 post treatment): 100.0% | Geometric Mean Percent Reduction of Adult C. felis Compared to Untreated Control Group ([3]; Day 7 (day of infestation, counted Day 9)): 100.0% | Geometric Mean Percent Reduction of Adult C. felis Compared to Untreated Control Group ([3]; Day 14 (day of infestation, counted Day 16)): 99.69% | Geometric Mean Percent Reduction of Adult C. felis Compared to Untreated Control Group ([3]; Day 21 (day of infestation, counted Day 23)): 99.45% | Geometric Mean Percent Reduction of Adult C. felis Compared to Untreated Control Group ([3]; Day 28 (day of infestation, counted Day 30)): 98.05% | fleas at each comb count ([4]; 50 mg/kg oral, up through Day 21): zero | post-treatment residual flea efficacy (geometric means) ([4]; all four spinosad groups (35, 40, 45, 50 mg/kg oral), up to and including Day 21 post-treatment): > 90% | Geometric Mean Counts of Adult C. felis ([4]; single oral dose 35 mg/kg in gelatin capsule, Day 1 post treatment): (0.0) | Geometric Mean Percent Reduction of Adult C. felis Compared to Untreated Control Group ([4]; single oral dose 35 mg/kg in gelatin capsule, Day 1 post treatment, 35 mg/kg): 100% | Geometric Mean Counts of Adult C. felis [4, 6]: (0.0) | Geometric Mean Percent Reduction of Adult C. felis Compared to Untreated Control Group [4, 6]: 100.00% | Geometric Mean Counts of Adult C. felis [4, 7]: (0.2) | Geometric Mean Percent Reduction of Adult C. felis Compared to Untreated Control Group [4, 7]: 99.74% | Geometric Mean Counts of Adult C. felis [4, 8]: (5.4) | Geometric Mean Percent Reduction of Adult C. felis Compared to Untreated Control Group [4, 8]: 92.94% | Geometric Mean Counts of Adult C. felis ([4]; single oral dose 35 mg/kg in gelatin capsule, Day 30 post treatment): (11.8) | Geometric Mean Counts of Adult C. felis [4, 9]: (32.4) | Geometric Mean Percent Reduction of Adult C. felis Compared to Untreated Control Group [4, 9]: 52.20% | Geometric Mean Counts of Adult C. felis ([4]; single oral dose 40 mg/kg in gelatin capsule, Day 1 post treatment): (0.0) | Geometric Mean Percent Reduction of Adult C. felis Compared to Untreated Control Group ([4]; single oral dose 40 mg/kg in gelatin capsule, Day 1 post treatment, 40 mg/kg): 100% | Geometric Mean Counts of Adult C. felis [4, 10]: (0.0) | Geometric Mean Percent Reduction of Adult C. felis Compared to Untreated Control Group [4, 10]: 100.00% | Geometric Mean Counts of Adult C. felis [4, 11]: (0.0) | Geometric Mean Percent Reduction of Adult C. felis Compared to Untreated Control Group [4, 11]: 100.00% | Geometric Mean Counts of Adult C. felis [4, 12]: (1.0) | Geometric Mean Percent Reduction of Adult C. felis Compared to Untreated Control Group [4, 12]: 98.74% | Geometric Mean Counts of Adult C. felis [4, 13]: (5.2) | Geometric Mean Percent Reduction of Adult C. felis Compared to Untreated Control Group [4, 13]: 91.59% | Geometric Mean Counts of Adult C. felis [4, 14]: (18.9) | Geometric Mean Percent Reduction of Adult C. felis Compared to Untreated Control Group [4, 14]: 72.18% | Geometric Mean Counts of Adult C. felis ([4]; single oral dose 45 mg/kg in gelatin capsule, Day 1 post treatment): (0.0) | Geometric Mean Percent Reduction of Adult C. felis Compared to Untreated Control Group ([4]; single oral dose 45 mg/kg in gelatin capsule, Day 1 post treatment, 45 mg/kg): 100% | Geometric Mean Counts of Adult C. felis [4, 15]: (0.4) | Geometric Mean Percent Reduction of Adult C. felis Compared to Untreated Control Group [4, 15]: 99.50% | Geometric Mean Counts of Adult C. felis [4, 16]: (2.0) | Geometric Mean Percent Reduction of Adult C. felis Compared to Untreated Control Group [4, 16]: 97.22% | Geometric Mean Counts of Adult C. felis [4, 17]: (4.6) | Geometric Mean Percent Reduction of Adult C. felis Compared to Untreated Control Group [4, 17]: 93.98% | Geometric Mean Counts of Adult C. felis ([4]; single oral dose 45 mg/kg in gelatin capsule, Day 30 post treatment): (11.9) | Geometric Mean Counts of Adult C. felis [4, 18]: (35.1) | Geometric Mean Percent Reduction of Adult C. felis Compared to Untreated Control Group [4, 18]: 48.29% | Geometric Mean Counts of Adult C. felis ([4]; single oral dose 50 mg/kg in gelatin capsule, Day 1 post treatment): (0.0) | Geometric Mean Percent Reduction of Adult C. felis Compared to Untreated Control Group ([4]; single oral dose 50 mg/kg in gelatin capsule, Day 1 post treatment, 50 mg/kg): 100% | Geometric Mean Counts of Adult C. felis [4, 19]: (0.0) | Geometric Mean Percent Reduction of Adult C. felis Compared to Untreated Control Group [4, 19]: 100.00% | Geometric Mean Counts of Adult C. felis [4, 20]: (0.0) | Geometric Mean Percent Reduction of Adult C. felis Compared to Untreated Control Group [4, 20]: 100.00% | Geometric Mean Counts of Adult C. felis [4, 21]: (0.0) | Geometric Mean Percent Reduction of Adult C. felis Compared to Untreated Control Group [4, 21]: 100.00% | Geometric Mean Counts of Adult C. felis [4, 22]: (1.6) | Geometric Mean Percent Reduction of Adult C. felis Compared to Untreated Control Group [4, 22]: 97.33% | Geometric Mean Counts of Adult C. felis [4, 23]: (8.5) | Geometric Mean Percent Reduction of Adult C. felis Compared to Untreated Control Group [4, 23]: 87.50% | knockdown efficacy based on geometric means ([5]; Day 1): 100% | residual efficacy based on geometric means ([5]; Day 7): 99.78% | residual efficacy based on geometric means ([5]; Day 14): 99.57% | residual efficacy based on geometric means ([5]; Day 21): 95.83% | residual efficacy based on geometric means ([5]; Day 30): 90.77% | residual efficacy based on geometric means ([5]; Day 37): 90.36%
